Numbers after ± are expanded uncertainties.
Conditions: for viscosity / mass density: 101.33 kPa, Liquid; for viscosity: Cone and plate viscometry; for mass density: Vibrating tube method; for Normal melting temperature: Crystal, DTA; for Glass transition temperature: DSC

| Compound | viscosity (278.15 K) [mPa·s] | viscosity (283.15 K) [mPa·s] | mass density (283.15 K) [kg/m3] | viscosity (288.15 K) [mPa·s] | mass density (288.15 K) [kg/m3] | viscosity (293.15 K) [mPa·s] | mass density (293.15 K) [kg/m3] | mass density (295.15 K) [kg/m3] | viscosity (298.15 K) [mPa·s] | mass density (298.15 K) [kg/m3] | viscosity (303.15 K) [mPa·s] | mass density (303.15 K) [kg/m3] | viscosity (308.15 K) [mPa·s] | mass density (308.15 K) [kg/m3] | viscosity (313.15 K) [mPa·s] | mass density (313.15 K) [kg/m3] | viscosity (318.15 K) [mPa·s] | mass density (318.15 K) [kg/m3] | mass density (323.15 K) [kg/m3] | mass density (328.15 K) [kg/m3] | further results |
| --- | --- | --- | --- | --- | --- | --- | --- | --- | --- | --- | --- | --- | --- | --- | --- | --- | --- | --- | --- | --- | --- |
| CCCCCCCCC[P+](CC)(CC)CC.O=[N+]([O-])c1cn[n-]c1 [triethylnonylphosphonium 4-nitropyrazolide] | 1370 ± 120 | 888 ± 76 | 1031 ± 5.7 | 593 ± 48 | 1027.9 ± 5.7 | 409 ± 32 | 1024.9 ± 5.7 | 1023.6 ± 5.7 | 291 ± 22 | 1021.8 ± 5.6 | 213 ± 15 | 1018.8 ± 5.6 | 160 ± 11 | 1015.8 ± 5.6 | 123 ± 8 | 1012.9 ± 5.5 | 96 ± 6 | 1009.9 ± 5.5 | 1007 ± 5.5 | 1004 ± 5.4 | viscosity (323.15 K): 77 ± 5 mPa·s; viscosity (328.15 K): 63 ± 4 mPa·s; viscosity (333.15 K): 52 ± 3 mPa·s; mass density (333.15 K): 1001.1 ± 5.4 kg/m3; mass density (338.15 K): 998.2 ± 5.4 kg/m3; mass density (343.15 K): 995.3 ± 5.3 kg/m3; mass density (348.15 K): 992.4 ± 5.3 kg/m3; mass density (353.15 K): 989.5 ± 5.3 kg/m3; Normal melting temperature: 16 ± 2 °C; Glass transition temperature: -72 ± 2 °C |
| CCCCCCCC[P+](CC)(CC)CC.O=[N+]([O-])c1c[n-]cn1 [triethyloctylphosphonium 4-nitroimidazolide] | 1220 ± 110 | 804 ± 68 | 1037.8 ± 5.8 | 547 ± 44 | 1034.8 ± 5.8 | 382 ± 29 | 1031.8 ± 5.8 | 1030.6 ± 5.7 | 276 ± 20 | 1028.8 ± 5.7 | 204 ± 14 | 1025.8 ± 5.7 | 155 ± 11 | 1022.9 ± 5.7 | 120 ± 8 | 1020.1 ± 5.6 | 95 ± 6 | 1017.2 ± 5.6 | 1014.3 ± 5.6 | 1011.4 ± 5.5 | viscosity (323.15 K): 76 ± 5 mPa·s; viscosity (328.15 K): 62 ± 4 mPa·s; viscosity (333.15 K): 52 ± 3 mPa·s; mass density (333.15 K): 1008.5 ± 5.5 kg/m3; mass density (338.15 K): 1005.7 ± 5.5 kg/m3; mass density (343.15 K): 1002.8 ± 5.4 kg/m3; mass density (348.15 K): 1000 ± 5.4 kg/m3; mass density (353.15 K): 997.1 ± 5.4 kg/m3; Normal melting temperature: -28 ± 2 °C |
| CCCCCCSC(N(C)C)=[N+](C)C.O=S(=O)([N-]S(=O)(=O)C(F)(F)F)C(F)(F)F | 268 ± 20 | 193 ± 14 | 1352.2 ± 10 | 143 ± 10 | 1347.8 ± 9.9 | 109 ± 7 | 1343.4 ± 9.8 | 1341.6 ± 9.8 | 85 ± 6 | 1339 ± 9.8 | 68 ± 5 | 1334.6 ± 9.7 | 55 ± 4 | 1330.2 ± 9.7 |  | 1325.8 ± 9.6 |  | 1321.5 ± 9.5 | 1317.1 ± 9.5 | 1312.8 ± 9.4 | mass density (333.15 K): 1308.5 ± 9.3 kg/m3; mass density (338.15 K): 1304.2 ± 9.3 kg/m3; mass density (343.15 K): 1299.8 ± 9.2 kg/m3; mass density (348.15 K): 1295.6 ± 9.2 kg/m3; mass density (353.15 K): 1291.3 ± 9.1 kg/m3; Glass transition temperature: -82 ± 2 °C |
| CCCC[n+]1cccn1C.O=S(=O)([N-]S(=O)(=O)C(F)(F)F)C(F)(F)F [1-butyl-2-methylpyrazolium bis(trifluoromethylsulfonyl)imide] | 214 ± 15 | 155 ± 11 | 1465.4 ± 12 | 116 ± 8 | 1460.7 ± 12 | 88 ± 6 | 1456 ± 12 | 1454.06 ± 12 | 70 ± 5 | 1451.2 ± 12 | 55 ± 4 | 1446.5 ± 11 |  | 1441.8 ± 11 |  | 1437.1 ± 11 |  | 1432.4 ± 11 | 1427.7 ± 11 | 1423 ± 11 | mass density (333.15 K): 1418.4 ± 11 kg/m3; mass density (338.15 K): 1413.8 ± 11 kg/m3; mass density (343.15 K): 1409.1 ± 11 kg/m3; mass density (348.15 K): 1404.6 ± 11 kg/m3; mass density (353.15 K): 1400 ± 11 kg/m3; Glass transition temperature: -82 ± 2 °C |
| CCC=C[P+](CC)(CC)CC.O=[N+]([O-])c1cn[n-]c1 [(buten-1-yl)triethylphosphonium 4-nitropyrazolide] |  |  |  |  |  |  |  |  | 134 ± 9 |  | 102 ± 7 |  | 79 ± 5 |  | 63 ± 4 |  | 52 ± 3 |  |  |  | Normal melting temperature: 39 ± 2 °C |
| CCC=C[P+](CC)(CC)CC.O=S(=O)([N-]S(=O)(=O)C(F)(F)F)C(F)(F)F |  |  |  |  |  |  |  |  |  |  |  |  |  |  |  |  |  |  |  |  | Normal melting temperature: 49 ± 2 °C |
| Cc1n(C2CCCC2)cc[n+]1C.O=[N+]([O-])c1cn[n-]c1 [1-cyclopentyl-2,3-dimethylimidazolium 4-nitropyrazolide] |  |  |  |  |  |  |  |  |  |  |  |  |  |  |  |  |  |  |  |  | Normal melting temperature: 92 ± 2 °C |
| CC[P+](CC)(CC)COCCOC.Cc1ncc([N+](=O)[O-])[n-]1 | 567 ± 45 | 381 ± 29 |  | 264 ± 19 |  | 189 ± 13 |  |  | 140 ± 10 |  | 106 ± 7 |  | 83 ± 6 |  | 65 ± 4 |  | 53 ± 4 |  |  |  | Glass transition temperature: -75 ± 2 °C |
| CC(=O)[O-].CCCCCCn1cc[n+](C)c1 [3-hexyl-1-methylimidazolium acetate] | 12300 ± 1500 | 6460 ± 740 | 1025.7 ± 5.7 | 3550 ± 370 | 1022.7 ± 5.7 | 2060 ± 200 | 1019.6 ± 5.6 | 1018.4 ± 5.6 | 1270 ± 120 | 1016.6 ± 5.6 | 816 ± 69 | 1013.5 ± 5.5 | 537 ± 43 | 1010.4 ± 5.5 | 372 ± 28 | 1007.4 ± 5.5 | 265 ± 19 | 1004.5 ± 5.4 | 1001.5 ± 5.4 | 998.5 ± 5.4 | viscosity (323.15 K): 194 ± 14 mPa·s; viscosity (328.15 K): 147 ± 10 mPa·s; viscosity (333.15 K): 113 ± 8 mPa·s; mass density (333.15 K): 995.5 ± 5.3 kg/m3; viscosity (338.15 K): 90 ± 6 mPa·s; mass density (338.15 K): 992.6 ± 5.3 kg/m3; mass density (343.15 K): 989.6 ± 5.3 kg/m3; mass density (348.15 K): 986.7 ± 5.3 kg/m3; mass density (353.15 K): 983.7 ± 5.2 kg/m3 |
| CCCCCCCCCCCCCC[P+](CCCCCC)(CCCCCC)CCCCCC.Clc1nc[n-]c1Cl [trihexyl(tetradecyl)phosphonium 4,5-dichloroimidazolide] | 4040 ± 420 | 2580 ± 260 | 974.1 ± 5.1 | 1680 ± 160 | 970.8 ± 5.1 | 1140 ± 100 | 967.5 ± 5.1 | 966.2 ± 5.1 | 789 ± 66 | 964.4 ± 5 | 566 ± 45 | 961.3 ± 5 | 415 ± 32 | 958.3 ± 5 | 308 ± 23 | 955.2 ± 4.9 | 234 ± 17 | 952.2 ± 4.9 | 949.1 ± 4.9 | 946.2 ± 4.9 | viscosity (323.15 K): 182 ± 13 mPa·s; viscosity (328.15 K): 144 ± 10 mPa·s; viscosity (333.15 K): 116 ± 8 mPa·s; mass density (333.15 K): 943.2 ± 4.8 kg/m3; mass density (338.15 K): 940.2 ± 4.8 kg/m3; mass density (343.15 K): 937.2 ± 4.8 kg/m3; mass density (348.15 K): 934.2 ± 4.8 kg/m3; mass density (353.15 K): 931.3 ± 4.7 kg/m3; Glass transition temperature: -64 ± 2 °C |

Reference: the NIST ThermoML archive (doi:10.1021/acs.jced.6b00269)
